Experimental findings from patent publication US10077289B2, “Cyclosporins modified on the MeBmt sidechain by heterocyclic rings” (priority 2015, dated 2018) are described below.

The target in data set [1] is Human recombinant cyclophilin A (Cyp A) (Homo sapiens (Human), UniProt P62937). As to the kind of experiment: Protease-free PPIase assay. On the procedure: Protease-Free PPIase Assay
The protease-free PPIase assay measures the rate of cis to trans conversion of a peptide substrate catalyzed by the enzyme cyclophilin A. Addition of a cyclophilin A inhibitor (e.g., a test compound) slows the catalyzed rate and a Ki value is obtained.
35 mM HEPES pH 7.8, filtered through a 0.2 μm filter. 50 μM DTT was added prior to use each day and then the buffer was stored on ice.
Human recombinant cyclophilin A (Cyp A) (Sigma C3805) enzyme was diluted to 1 μM with enzyme dilution buffer (20 mM HEPES pH 7.8, 40% glycerol, 50 μM DTT and 1 μM BSA) and stored at −20° C.
Succinimide-Ala-Ala-Pro-Phe-p-nitroanilide (SUC-AAPF-pNA) (from Bachem AG, L-1400), 20 mg/ml prepared in 0.5 M LiCl in trifluoroethanol.
The temperature is monitored by the use of a temperature probe. To prevent UV degradation of test compounds, the light below 290 nm was blocked using a glass slide in the light path. 1.5 ml of the assay buffer was put into a 3 ml quartz cuvette and cooled to 10.0±0.1° C. while stirring (vigorous but not so fast as to produce cavitation). The inhibitor was diluted in 100% DMSO, and then added to the assay to a maximum final concentration of 0.5% DMSO in the assay. A blank spectrum was obtained, then 3 μL of enzyme was added (2 nM final concentration) and then 3 μL substrate (60 μM final concentration) added. The absorbance was measured at 330 nm for 300 s or 500 s for blank runs (NOTE: the substrate must be added in one quick injection and the measurements started immediately to minimize mixing errors).
A first order rate equation was fitted to the absorbance data, for each concentration of inhibitor, to obtain the rate constant (the first 10 to 15 seconds were excluded as mixing causes errors in this portion of curve). The catalytic rate was calculated from the enzymatic rate constant minus the background rate constant. An exponential curve was generated using the catalytic rate constants versus the inhibitor concentration to obtain the Ki value for the inhibitor. The Ki value is indicative of the binding affinity between the test compound and cyclophilin A.

The target of data set [2] is calcineurin/cyclophilin A (Homo sapiens (Human), UniProt P62937+P63098+Q08209). Put plainly: Calcineurin Phosphatase (CaN) Assay (+CypA). Format: biochemical. From the text: Calcineurin Phosphatase (CaN) Assay
The calcineurin phosphatase assay is a means for estimating the immunosuppressive potential of a test compound. Calcineurin is a serine-threonine protein phosphatase that on activation dephosphorylates members of the nuclear factor of activated T cells (NFAT), which are important in T lymphocyte activation.
To investigate the immunosuppressive potential of exemplary compounds of Formula I, which are cyclosporin analogs, their ability to inhibit calcineurin activity was measured in the presence and absence of Cyp A.
The CaN assay kit used is based on a colorimetric assay for measuring calcineurin phosphatase activity, and it is commercially available (Enzo Life Sciences and Calbiochem). Calmodulin is also required for calcineurin activity and RII phosphopeptide is used as an efficient peptide substrate for calcineurin. […] The detection of free phosphate released is based on the classic Malachite green assay.
Enzo Life Sciences CaN Assay Kit: BML-AK804
Malachite Green: BIOMOL Green™ reagent
Calmodulin (Human, recombinant): was thawed on ice, diluted 1:50 with 2× assay buffer, and then stored on ice.
Calcineurin: was thawed quickly, stored on ice immediately, diluted 1:12.5 with 1× assay buffer, and then stored on ice.
R-II Substrate: 915 μL ultrapure water (UPW) was added to the 1.5 mg vial substrate to give a final concentration of 0.75 mM.
Inhibitors: 2.5 mM inhibitor in 100% DMSO.
Cyp A: recombinant human CypA (Sigma C3805), 1 mg/ml; Recombinant 6-His tagged CypA prepared by the University of Edinburgh was also used.
Inhibitor dilutions: inhibitor compounds were diluted in UPW in polypropylene low-binding 96 well plates at 5× the final assay concentration.
Assay Setup: using the half area 96 well plates supplied with the kit, 10 μl UPW was added to duplicate wells to provide the non-inhibited control. 10 μl of the inhibitor or the inhibitor/Cyp A complex was added to the appropriate sample wells. 25 μl of the 2× assay buffer with CaM was added to all wells, then 5 μl of CaN was added to all wells (40 U per well final concentration) except duplicate ‘no calcineurin blank’ wells to which 5 μL 1× assay buffer was added. The assay plate was placed in an oven at 30° C. for 15 minutes to equilibrate to the reaction temperature. The reaction was started by the addition of 10 μl RII-peptide (0.15 mM final concentration). The reaction was allowed to proceed at 30° C. for a time period in which the reaction is linear for about 60 minutes. The reaction was then terminated by adding 100 μl of the Malachite Green reagent. The color was allowed to develop for 15-30 minutes at room temperature before the absorbance at 620 nm was measured using a plate reader (Molecular Devices—SpectraMax M5). The data were analyzed by subtracting ‘no Calcineurin blank’ from all the absorbance readings and plotting the background corrected absorbances against Log10 inhibitor concentration. A sigmoidal-dose response curve was fitted to the data using GraphPad Prism Software.
It exerts its immunosuppressive activity by binding to cyclophilin A to form a complex, which then binds to calcineurin and thereby inhibits calcineurin activity.

Data set [3] in a line: Water Solubility Assay (measured in pH 7.8 buffer). Format: physicochemical. The following applies: kinetic from dmso stock, 25 °C. How it is done:
Water Solubility Assay (Measured in pH 7.8 Buffer)
The aqueous solubility of a compound of Formula I in buffer (pH 7.8) was measured by recording the onset of precipitation of the compound as a function of increasing concentration. The onset of precipitation, if it occurred, was detected by an increase in absorbance at 650 nm.
Assay Buffer: 35 mM HEPES pH 7.8
Stock solutions of Control and Test Compounds: 10 mM in 100% DMSO.
10 mM stock solutions of control and test compounds were prepared in 100% DMSO.
Assay buffer (247.5 μl) was placed into flat bottomed transparent 96-well plate. For blank samples DMSO (2.5 μl) was added. For test and control samples 2.5 μl of the appropriate DMSO dilution stocks were added to the appropriate well. All test and control compounds were performed in triplicate.
The plates were sealed with adhesive plate seal and shaken at 250 rpm at 25° C. for 18 h on a plate shaker. After incubation the plate seals were taken off and any bubbles observed in wells removed. The plates were read on a SpectraMaxM5 with a 5 s pre-shake at 650 nm. Data files were transferred to the appropriate worksheet and the solubility range of the compounds was calculated from the data. The values shown in the Tables indicate the concentration in μM (micromolar) at which the compound remains in solution.

The mark [4] stands for this setting: read-out: Protease-free PPIase Assay Ki, human recombinant Cyp A, 10 °C.
Where [5] appears, read: in the presence of Cyp A, 1:1 complex with inhibitor, read-out: Calcineurin Phosphatase (CaN) Assay (+CypA) IC50.
The mark [6] stands for this setting: 35 mM HEPES buffer pH 7.8, aqueous buffer, 35 mM HEPES pH 7.8, 1% DMSO, 18 h, read-out: Water Solubility Assay, concentration at which the compound remains in solution.

pIC50, pKi: −log10 of the molar value. ≈ marks a conversion by molar mass, not a printed value. Where two headings read alike, the source gives them in different places. Some results are limits rather than exact numbers.

What is called pKi is the negative decadic logarithm of the Ki, by convention in mol/L. For orientation: pIC50 means the negative decadic logarithm of the IC50, by convention in mol/L. Turning to `CC[C@H]1NC(=O)[C@@H]([C@H](O)[C@H](C)Cc2nccn2CCc2cccnc2)N(C)C(=O)[C@@H](C(C)C)N(C)C(=O)[C@@H](CC(C)C)N(C)C(=O)[C@@H](CC(C)C)N(C)C(=O)[C@H](C)NC(=O)[C@@H](C)NC(=O)[C@@H](CC(C)C)N(C)C(=O)[C@@H](C(C)C)NC(=O)[C@H](CC(C)C)N(C)C(=O)[C@@H](C)N(C)C1=O` [Compound 7, [(2S,3R,4R)-3-Hydroxy-4-methyl-2-(methylamino) 5-(1-(pyridin-3-yl-ethyl)-1H-imidazol-2-yl)pentanoic acid]^1 [(R)-methyl-Sar]^3 cyclosporin A], the pKi in data set [1] (setting [4]) is 8.25. Further, the pIC50 in data set [2] (setting [5]) was 5.11. In data set [3] (setting [6]), the solubility at 18 h was more than 100 µM.

With `CC[C@H]1NC(=O)[C@@H]([C@H](O)[C@H](C)CCCCc2ccccn2)N(C)C(=O)[C@@H](C(C)C)N(C)C(=O)[C@@H](CC(C)C)N(C)C(=O)[C@@H](CC(C)C)N(C)C(=O)[C@H](C)NC(=O)[C@@H](C)NC(=O)[C@@H](CC(C)C)N(C)C(=O)[C@@H](C(C)C)NC(=O)[C@H](CC(C)C)N(C)C(=O)[C@@H](C)N(C)C1=O` [Compound 28, [(2S,3R,4R)-3-Hydroxy-4-methyl-2-(methylamino)-8-(pyridin-2-yl)-octanoic acid]^1 [(R)-methyl-Sar]^3 cyclosporin A], in data set [1], the pKi was 8.41. Also, the pIC50 in data set [2] (setting [5]) was less than 5.00. In data set [3] (pH 7.8, aqueous buffer), this compound registered a solubility at 18 h of 50 to 75 µM (≈ 64.8 to 97.2 µg/mL).

As for `CC[C@H]1NC(=O)[C@@H]([C@H](O)[C@H](C)CCCc2ncccn2)N(C)C(=O)[C@@H](C(C)C)N(C)C(=O)[C@@H](CC(C)C)N(C)C(=O)[C@@H](CC(C)C)N(C)C(=O)[C@H](C)NC(=O)[C@@H](C)NC(=O)[C@@H](CC(C)C)N(C)C(=O)[C@@H](C(C)C)NC(=O)[C@H](CC(C)C)N(C)C(=O)[C@@H](C)N(C)C1=O` [Compound 22, [(2S,3R,4R)-3-Hydroxy-4-methyl-2-(methylamino)-7-(pyrimidin-2-yl)-heptanoic acid]^1 [(R)-methyl-Sar]^3 cyclosporin A], in data set [1], the pKi was 8.49. In data set [2] (setting [5]), the pIC50 was 5.94. In data set [3] (pH 7.8, aqueous buffer), this compound returned a solubility at 18 h of more than 100 µM.

Take `CC[C@H]1NC(=O)[C@@H]([C@H](O)[C@H](C)CCCc2ccc(OC)cn2)N(C)C(=O)[C@@H](C(C)C)N(C)C(=O)[C@@H](CC(C)C)N(C)C(=O)[C@@H](CC(C)C)N(C)C(=O)[C@H](C)NC(=O)[C@@H](C)NC(=O)[C@@H](CC(C)C)N(C)C(=O)[C@@H](C(C)C)NC(=O)[C@H](CC(C)C)N(C)C(=O)[C@@H](C)N(C)C1=O` [Compound 16, [(2S,3R,4R)-3-Hydroxy-4-methyl-2-(methylamino)-7-(5-methoxy-pyridin-2-yl)-heptanoic acid]^1 [(R)-methyl-Sar]^3 cyclosporin A]: the pKi in data set [1] (setting [4]) was 9.14. Further, in data set [2] (setting [5]), the negative logarithm of the IC50 (pIC50) was less than 5.00. Moreover, in data set [3] (setting [6]), the solubility at 18 h was in the range of 25 to 50 µM (≈ 32.8 to 65.6 µg/mL).

Consider `CC[C@H]1NC(=O)[C@@H]([C@H](O)[C@H](C)CCCc2ccncc2)N(C)C(=O)[C@@H](C(C)C)N(C)C(=O)[C@@H](CC(C)C)N(C)C(=O)[C@@H](CC(C)C)N(C)C(=O)[C@H](C)NC(=O)[C@@H](C)NC(=O)[C@@H](CC(C)C)N(C)C(=O)[C@@H](C(C)C)NC(=O)[C@H](CC(C)C)N(C)C(=O)[C@@H](C)N(C)C1=O` [Compound 15, [(2S,3R,4R)-3-Hydroxy-4-methyl-2-(methylamino)-7-(pyridin-4-yl)-heptanoic acid]^1 [(R)-methyl-Sar]^3 cyclosporin A], for which, in data set [1], the pKi is 8.60. In data set [2] (setting [5]), the pIC50 was 5.80. For the same compound, in data set [3] (pH 7.8, aqueous buffer), the solubility at 18 h was in the range of 50 to 75 µM (≈ 64.1 to 96.1 µg/mL).

`CC[C@H]1NC(=O)[C@@H]([C@H](O)[C@H](C)CCCc2cnn(C)c2)N(C)C(=O)[C@@H](C(C)C)N(C)C(=O)[C@@H](CC(C)C)N(C)C(=O)[C@@H](CC(C)C)N(C)C(=O)[C@H](C)NC(=O)[C@@H](C)NC(=O)[C@@H](CC(C)C)N(C)C(=O)[C@@H](C(C)C)NC(=O)[C@H](CC(C)C)N(C)C(=O)[C@@H](C)N(C)C1=O` [Compound 27, [(2S,3R,4R)-3-Hydroxy-4-methyl-2-(methylamino)-7-(1-methylpyrazol-4-yl)-heptanoic acid]^1 [(R)-methyl-Sar]^3 cyclosporin A]: in data set [1], the pKi was 8.17. Besides, in data set [2] (setting [5]), the pIC50 is 5.96. This compound also showed a solubility at 18 h in data set [3] (pH 7.8, aqueous buffer) of more than 100 µM.

Take `CC[C@H]1NC(=O)[C@@H]([C@H](O)[C@H](C)CCCc2ccccn2)N(C)C(=O)[C@@H](C(C)C)N(C)C(=O)[C@@H](CC(C)C)N(C)C(=O)[C@@H](CC(C)C)N(C)C(=O)[C@H](C)NC(=O)[C@@H](C)NC(=O)[C@@H](CC(C)C)N(C)C(=O)[C@@H](C(C)C)NC(=O)[C@H](CC(C)C)N(C)C(=O)CN(C)C1=O` [Compound 29, [(2S,3R,4R)-3-Hydroxy-4-methyl-2-(methylamino)-7-(pyridine-2-yl)-heptanoic acid]^1 cyclosporin A]: the pKi in data set [1] (setting [4]) was 7.96. Further, in data set [2] (setting [5]), the pIC50 was 5.58. The same compound registered a solubility at 18 h in data set [3] (pH 7.8, aqueous buffer) of 50 to 75 µM (≈ 63.4 to 95.1 µg/mL).

On to `CC[C@H]1NC(=O)[C@@H]([C@H](O)[C@H](C)Cc2nccn2CCN2CCOCC2)N(C)C(=O)[C@@H](C(C)C)N(C)C(=O)[C@@H](CC(C)C)N(C)C(=O)[C@@H](CC(C)C)N(C)C(=O)[C@H](C)NC(=O)[C@@H](C)NC(=O)[C@@H](CC(C)C)N(C)C(=O)[C@@H](C(C)C)NC(=O)[C@H](CC(C)C)N(C)C(=O)[C@@H](C)N(C)C1=O` [Compound 2, [(2S,3R,4R)-3-Hydroxy-4-methyl-2-(methylamino)-5-(1-(N-morpholino-ethyl)-1H-imidazol-2-yl)-pentanoic acid]^1 [(R)-methyl-Sar]^3 cyclosporin A], for which the pKi in data set [1] (setting [4]) is 8.34. Moreover, the pIC50 in data set [2] was less than 5.00. Besides, the solubility at 18 h in data set [3] (setting [6]) was more than 100 µM.
